According to paper PMC12303054, “First-in-class inhibitors of Nsp15 endoribonuclease of SARS-CoV-2: Modeling, synthesis, and enzymatic assay of thiazolidinedione and rhodanine analogs” (The Journal of Biological Chemistry, 2025):
Values joined by “and” are separate entries in the source; they are usually repeats but may differ in a detail not shown here. Equal entries are not always repeated. “Also recorded” adds a separate entry of the source. Where two headings read alike, the source gives them in different places.

What was measured:
Nsp15 = conditions: cited from earlier work
[1] = target: T1, wildtype SARS-CoV-2 Nsp15 (Severe acute respiratory syndrome coronavirus 2, UniProt P0DTD1); test: biochemical; conditions: for IC50: 150 nM enzyme, 1.2 μM substrate, 30 min, 25 °C, mean (SD), duplicates; for change of inhibitory effect relative to parent analog: comparison of IC50 values; for IC50 versus time: IC50 calculated every 5 min for 30 min; for inhibition model: extra sum-of-squares F test; for Vmax: fit parameter of mixed inhibition model for the named inhibitor
SARS-CoV-2 = SARS-CoV-2 plaque assay in VeroE6/TMPRSS2 cells; assay type: cell-based; conditions: for IC50: 24 h infection, MOI = 0.1, read-out: IC50 (viral inhibition, plaque assay)
[2] = target: T1, wildtype SARS-CoV-2 Nsp15; test: Nsp15 inhibition in HEPES buffer assay conditions; assay type: biochemical; conditions: 10 nM Nsp15, 500 nM substrate, 100 μM compound
SARS-CoV-2 Nsp15 = SARS-CoV-2 Nsp15 (Severe acute respiratory syndrome coronavirus 2, UniProt P0DTD1); test: Reversibility by the dilution method; assay type: biochemical; conditions: preincubated 60 min, diluted 1:100
SARS-CoV-2 RNA = assay type: cell-based; conditions: 24 h infection, MOI = 0.1
in vitro = assay type: cell-based; conditions: African green monkey, uninfected cells, intracellular ATP
Procedure: (§1) Initially, we grew VeroE6/TMPRSS2 cells overnight in 96-well plates at 10,000 cells per well. The next day, we added increasing concentrations of the tested compound (500, 200, 100, 50, 20, 10, 5, 2, and 1 μM) and DMSO as a control. We let the cells incubate with inhibitors for 24 h. After 24 h, we measured the viability of these cells using the CellTiter-Glo Luminescent Cell Viability Assay (Promega), according to the manufacturer’s instructions. We incubated cells in 100 μl of media with 100 μl of CellTiter-Glo reagent, which contains Ultra-Glo luciferase and the substrate luciferin. The luciferase converts luciferin to luminescent oxyluciferin in the presence of ATP. Viable cells produce more ATP and generate a stronger luminescent signal. We mixed samples by shaking for 10 min and measured luminescence by a VICTOR Nivo Plate Reader (Avantor Science Central).

VeroE6/TMPRSS2 cells = test: in vitro; assay type: cell-based; conditions: uninfected cells, 24 h, intracellular ATP
Procedure: as §1

[3] = noncompetitive inhibition model, IC50-to-Ki converter, read-out: Predicted Ki
[4] = Severe acute respiratory syndrome coronavirus 2, VeroE6/TMPRSS2, 24 h
[5] = mixed inhibition model fit, mean ± SD
[6] = mixed inhibition model fit, mean ± SD, read-out: Ki

Structure (SMILES) | inhibitory effect on Nsp15 activity [1] | IC50 [1] [µM] | Ki [1, 3] [µM] | change of inhibitory effect relative to parent analog [1] | also measured
Oc1ccc2ccccc2c1SSc1c(O)ccc2ccccc12 [IPA-3] |  |  |  |  | IC50 (Nsp15): 7 µM; inhibition mechanism (Nsp15): irreversibly inhibited Nsp15
O=C1NC(=O)C(=CC=Cc2c3ccccc3cc3ccccc23)S1 [KCO035, 5-(3-anthracen-9-yl-allylidene)-thiazolidine-2,4-dione] | mild inhibitory effect | 7.21 | 7.14 |  | inhibition at 100 µM ([1]; 100 μM compound): ~80%
O=C1NC(=O)C(=CC=Cc2ccccc2)S1 [KCO036, 5-(3-Phenyl-allylidene)-thiazolidine-2,4-dione] | weak inhibitor | 9.4 | 9.33 | reduced inhibitory effect | 
O=C1NC(=O)C(=CC=Cc2ccnc3ccccc23)S1 [KCO048] | low micromolar concentrations | 1.35 | 1.27 | threefold greater inhibitory effect than KCO231 | 
O=C1NC(=S)SC1=CC=Cc1c2ccccc2cc2ccccc12 [KCO230, 5-(3-anthracen-9-yl-allylidene)-2-thioxo-thiazolidin-4-one] |  | 4.58 | 4.5 | nearly doubled | 
O=C1NC(=O)C(=CC=Cc2cccc3ccccc23)S1 [KCO231, 5-(3-naphthalen-1-yl-allylidene)-thiazolidine-2,4-dione] |  | 4.41 | 4.34 | doubled the inhibitory effect | 
O=C1NC(=O)C(=CC=Cc2cncc3ccccc23)S1 [KCO234, 5-(3-isoquinolin-4-yl-allylidene)-thiazolidine-2,4-dione] |  | 7.38 | 7.3 | did not enhance inhibitory activity | 
O=C1NC(=O)C(=CC=Cc2cccc3ccncc23)S1 [KCO235, 5-(3-isoquinolin-8-yl-allylidene)-thiazolidine-2,4-dione] |  | 4.17 | 4.1 | moderate increase in inhibitory effect | 
O=C1NC(=O)C(=CC=Cc2ccc3cnccc3c2)S1 [KCO236, 5-(3-isoquinolin-6-yl-allylidene)-thiazolidine-2,4-dione] | submicromolar levels | 0.932 | 0.857 | moderate increase in inhibitory effect | 
O=C1NC(=S)SC1=CC=Cc1ccnc2ccccc12 [KCO237, 5-(3-quinolin-4-yl-allylidene)-2-thioxo-thiazolidine-4-one] | submicromolar levels | 0.304 | 0.229 | fivefold increase in potency compared with KCO048 | IC50 (SARS-CoV-2): 13.9 ± 1.95 µM; IC50 (SARS-CoV-2; [4]): 14 µM; Ki ([1]; Cheng–Prusoff equation, noncompetitive inhibition assumed, read-out: predicted Ki): 0.23 µM; IC50 versus time [1]: consistent through the period of the assay; also recorded: remained constant over the time of the assay; inhibition model [1]: reversible mixed inhibition model; Vmax [1]: 1.57 ± 0.0568 µM/min; α [1, 5]: 0.343 ± 0.188; Ki [1, 6]: 0.318 ± 0.134 µM; inhibition under HEPES assay conditions [2]: inhibited Nsp15 more potently than tipiracil under these conditions; Nsp15 activity after inhibitor dilution (SARS-CoV-2 Nsp15): recovered its activity; intracellular SARS-CoV-2 RNA (SARS-CoV-2 RNA): significantly reduced viral RNA in a dose-dependent manner; CC50 at 24 h (in vitro): > 500 µM
CN1C(=O)SC(=CC=Cc2c3ccccc3cc3ccccc23)C1=O [KCO238, 3-methyl-5-(3-anthracen-9-yl-allylidene)-thiazolidine-2,4-dione] | did not inhibit Nsp15 activity; also recorded: lose their inhibitory effect | 106 |  |  | 
O=C1NC(=S)SC1=CC=Cc1cccc2ccccc12 [KCO249, 5-(3-naphthalen-1-yl-allylidene)-2-thioxo-thiazolidin-4-one] | low micromolar concentrations |  | 1.28 | enhanced its inhibitory effect by sixfold | 
CN1C(=O)SC(=CC=Cc2cccc3ccccc23)C1=O [KCO250, 3-methyl-5-(3-naphthalen-1-yl-allylidene)-thiazolidine-2,4-dione] | did not inhibit Nsp15 activity; also recorded: lose their inhibitory effect | > 1000 |  |  | 
O=C1NC(=S)SC1=CC=Cc1cncc2ccccc12 [KCO251, 5-(3-isoquinolin-4-yl-allylidene)-2-thioxo-thiazolidin-4-one] | submicromolar levels | 0.931 | 0.856 | eightfold increase in inhibition potency | selectivity index (SI) (SARS-CoV-2; CC50 over IC50): ~13 and > 10; IC50 (SARS-CoV-2; [4]): 24 µM; IC50 versus time [1]: consistent through the period of the assay; also recorded: remained constant over the time of the assay; inhibition model [1]: reversible mixed inhibition model; Vmax [1]: 3.38 ± 0.170 µM/min; α [1, 5]: 0.293 ± 0.280; Ki [1, 6]: 0.471 ± 0.33 µM; inhibition under HEPES assay conditions [2]: inhibited Nsp15 more potently than tipiracil under these conditions; Nsp15 activity after inhibitor dilution (SARS-CoV-2 Nsp15): recovered its activity; intracellular SARS-CoV-2 RNA (SARS-CoV-2 RNA): significantly reduced viral RNA in a dose-dependent manner; CC50 at 24 h (in vitro): > 300 µM; CC50 (VeroE6/TMPRSS2 cells): 311 ± 120 µM
O=C1C(SCCO)=C(SCCO)C(=O)c2ccccc21 [NSC95397] |  |  |  |  | IC50 (Nsp15): 43 µM
N=C1CCCN1Cc1nc(O)nc(O)c1Cl [Tipiracil, tipiracil, reference compound] | did not inhibit Nsp15 activity | > 1000 |  |  | inhibition under HEPES assay conditions [2]: did inhibit Nsp15 under these conditions but to a lesser extent than KCO237 and KCO251; IC50 (Nsp15): 7.5 µM
Oc1c(Cl)cc(Cl)c(Cl)c1Cc1c(O)c(Cl)cc(Cl)c1Cl [hexachlorophene] |  |  |  |  | IC50 (Nsp15): 1 µM
